Data published in ChEMBL document CHEMBL1201862, “PubChem BioAssay data set” (2004).
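Tested at 5 concentrations; 48 h exposure; 96-well plates; endpoints linearly interpolated, else capped at highest concentration. GI50: concentration for 50% inhibition of growth.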 Activity calls are given as the source filed them. No stated cut-off is given here; in the data, active = GI50 up to about 1.1 µM and inactive = higher.

Key:
Experiment in all cases: growth of human tumour cells (NCI), 48 h
[1] = test system: A549
[2] = test system: ACHN
[3] = test system: CCRF-CEM
[4] = test system: COLO 205
[5] = test system: HCT-116
[6] = test system: HOP-92
[7] = test system: HT-29
[8] = test system: KM12
[9] = test system: MOLT-4
[10] = test system: NCI-H522
[11] = test system: OVCAR-4
[12] = test system: OVCAR-5
[13] = test system: SF-295
[14] = test system: SF-539
[15] = test system: SK-MEL-5
[16] = test system: SNB-75
[17] = test system: SR
[18] = test system: SW-620
[19] = test system: TK-10
[20] = test system: UACC-257

Measured: GI50

COC(=O)N/N=C(\C)C(CN1CCOCC1)C(c1ccccc1)c1cc2ccccc2oc1=O (stereo not given)
inactive: [1] > 100 µM | [2] > 100 µM | [3] 44.6 µM | [4] 52.6 µM | [5] > 100 µM | [6] 30.5 µM | [7] > 100 µM | [8] > 100 µM | [9] 44.2 µM | [10] > 100 µM | [11] 74.3 µM | [12] > 100 µM | [13] > 100 µM | [14] > 100 µM | [15] > 100 µM | [16] > 100 µM | [17] 23.9 µM | [18] > 100 µM | [19] > 100 µM | [20] 82.4 µM

N#C/C(=C\c1cn(Cc2ccccc2)c2ccccc12)c1nn(-c2ccccc2)c(N)c1C#N
inactive: [1] 11.2 µM | [2] 18.7 µM | [3] 19.1 µM | [4] 20.1 µM | [5] 16.4 µM | [6] 8.41 µM | [7] 11.3 µM | [8] 26.1 µM | [9] 26.1 µM | [10] 13.2 µM | [11] 3.24 µM | [12] 18.8 µM | [13] 11.1 µM | [14] 3.11 µM | [15] 11 µM | [16] 4.07 µM | [17] 24.7 µM | [18] 14.8 µM | [19] 15.8 µM | [20] 20.1 µM

O=C1C(Nc2ccc(S(=O)(=O)Nc3cnc4ccccc4n3)cc2)=C/C(=N\c2ccc(S(=O)(=O)Nc3cnc4ccccc4n3)cc2)c2ccccc21
inactive: [1] 19.7 µM | [2] 30.7 µM | [3] 24 µM | [4] 18.5 µM | [5] 18.3 µM | [6] 15 µM | [7] 20.4 µM | [8] 16.9 µM | [9] 25 µM | [10] 16.8 µM | [11] 20.8 µM | [12] 16.3 µM | [13] 16.3 µM | [14] 18.9 µM | [15] 17.5 µM | [16] 14.6 µM | [17] 31.4 µM | [18] 17.5 µM | [19] 30.7 µM | [20] 37.7 µM

Cc1c(C(=O)c2ccc(N)c3ccccc23)c2ccccc2n1CCN1CCOCC1
inactive: [1] 13.1 µM | [2] 31.4 µM | [3] 2.9 µM | [4] 27.5 µM | [5] 19.5 µM | [6] 21.9 µM | [7] 22.4 µM | [8] 3.38 µM | [9] 12 µM | [10] 6.82 µM | [11] 3.1 µM | [12] 25.9 µM | [13] 3.15 µM | [14] 19.7 µM | [15] 15.5 µM | [16] 2.62 µM | [17] > 32.8 µM | [18] 26.1 µM | [19] 31 µM | [20] 17.3 µM

COC1CC(n2cnc3c(N)ncnc32)OC1CO (stereo not given)
inactive: [1] > 100 µM | [2] > 100 µM | [3] 56 µM | [4] > 100 µM | [5] > 100 µM | [6] > 100 µM | [7] > 100 µM | [8] > 100 µM | [9] > 100 µM | [10] > 100 µM | [11] > 100 µM | [12] > 100 µM | [13] > 100 µM | [14] > 100 µM | [15] > 100 µM | [16] > 100 µM | [17] > 100 µM | [18] > 100 µM | [19] > 100 µM | [20] > 100 µM

Cc1[nH]c2ccccc2c1C1Cc2ccccc2N1C(=O)/C=C/C=C/c1ccccc1 (stereo not given)
inactive: [1] > 100 µM | [2] > 100 µM | [3] 58.2 µM | [4] > 100 µM | [5] > 100 µM | [6] > 100 µM | [7] > 100 µM | [8] > 100 µM | [9] 12.7 µM | [10] > 100 µM | [11] 24.3 µM | [12] > 100 µM | [13] > 100 µM | [14] > 100 µM | [15] > 100 µM | [16] > 100 µM | [17] > 100 µM | [18] > 100 µM | [19] > 100 µM | [20] 33 µM

O=C1C2Nc3ccccc3SC2C(=O)N1c1cccc([N+](=O)[O-])c1 (stereo not given)
inactive: [1] 98.9 µM | [2] > 84.1 µM | [3] 86.7 µM | [4] > 100 µM | [5] > 100 µM | [6] > 100 µM | [7] > 92.3 µM | [8] 17 µM | [9] 51.8 µM | [10] 57.3 µM | [11] > 100 µM | [12] 13.4 µM | [13] > 74.5 µM | [14] > 100 µM | [15] > 100 µM | [16] > 100 µM | [17] > 100 µM | [18] > 100 µM | [19] 35.4 µM | [20] > 100 µM

c1ccc(Cc2cccc3cc(-c4ccc(-c5ccccc5)cc4)[nH]c23)cc1
inactive: [1] 76.7 µM | [2] > 100 µM | [3] 30.1 µM | [4] > 100 µM | [5] > 100 µM | [6] > 100 µM | [7] > 100 µM | [8] 86.9 µM | [9] > 100 µM | [10] 17.2 µM | [11] 19.7 µM | [12] > 100 µM | [13] > 100 µM | [14] 53.8 µM | [15] > 100 µM | [16] 22.5 µM | [17] 16.9 µM | [18] 92 µM | [19] > 100 µM | [20] > 100 µM

CCOC(=O)c1cn2c([nH]c3ccccc32)c(C#N)c1=O
inactive: [1] > 100 µM | [2] > 100 µM | [3] 52.4 µM | [4] 41.6 µM | [5] 80.4 µM | [6] > 100 µM | [7] > 100 µM | [8] > 100 µM | [9] > 100 µM | [10] > 100 µM | [11] > 100 µM | [12] > 100 µM | [13] > 100 µM | [14] > 100 µM | [15] > 100 µM | [16] > 100 µM | [17] > 100 µM | [18] 17.1 µM | [19] > 100 µM | [20] > 100 µM
